Assay results taken from patent US20070087985A1, “MRCK-related compositions and methods” (priority 2005, published 2007).

How the values were obtained:
Assay type in all cases: cell-based
[1] = tested on: starved wound edge NIH-3T3 cells; experiment: MTOC reorientation in wounded starved monolayers (fixed, stained cells); conditions: for MTOC reorientation in starved cells without LPA: microinjected protein or expressed DNA, no other treatment; for effect on MTOC reorientation induced by LPA: pre-treatment with 0.5 μM CD or 50 μM BB
Description: (§1) NIH-3T3 cells were cultured in DMEM with 10% calf serum, serum starved for 2 days and wounded as previous described (9, 21).
(§2) Plasmid DNA was purified using Plasmid Midi Kit (Qiagen, Valencia, Calif.) and was microinjected into nuclei as described (38). Expression was detectable within 1-2 hr. Proteins were microinjected as described (9, 39). DIC mAb 74.1 (from K. Pfister, U. of Virginia), was microinjected at 10 mg/ml and Cdc42, Rac and Rho GTPases were microinjected at 1 mg/ml. For double microinjections, 100 μg/ml DNA (MRCK-WT or MRCK-CPC) was injected into the nucleus with 2 mg/ml fluorescein-ovalbumin. After 30 min, labelled cells were injected with DIC mAb, L61Cdc42 or human IgG as a control.
(§3) Phase contrast and fluorescence images of cells stained for pericentrin or γ-tubulin, β-catenin, DNA, expression tag, MTs. (Tyr tubulin) or injection marker were acquired as described (38, 39). MTOC reorientation was determined as previously described (39). For analysis of nucleus and MTOC position, images were pseudo-colored, aligned with the wound parallel to the X axis and then combined using Metamorph software. The cell perimeter was drawn over the cell-cell contacts (β-catenin, expression tags or injection markers) and the wound edge (Tyr-tubulin or injection markers) and the cell centroid was calculated using Metamorph software. Similarly, the nuclear perimeter was drawn and the centroid of the nucleus calculated. A vector representing the distances from the centroid of the nucleus and the MTOC (γ-tubulin or pericentrin staining and MT focus) to the cell centroid was drawn and resolved into X and Y coordinates (parallel and perpendicular to the leading edge, respectively). To allow comparison between cells, measurements were normalized to cell size. […] At least 30 cells from 3 independent experiments were analysed for each condition and error bars in plots are SEM.

[2] = tested on: starved wound edge NIH-3T3 cells; experiment: Determination of nucleus and MTOC position relative to the cell centroid; conditions: for effect on LPA-induced rearward nuclear movement / effect on rearward nuclear movement induced by LPA / effect on the position of the MTOC: 2 μM LPA, 2 hr; for rearward nuclear movement in starved cells without LPA: microinjected protein or expressed DNA; for effect on rearward nuclear movement induced by LPA / effect on the position of the MTOC: pre-treatment with 0.5 μM CD or 50 μM BB
Description: as §1, §2, §3

[3] = tested on: starved wound edge NIH-3T3 cells; experiment: Migration of expressing wound edge cells after serum stimulation; conditions: DNA microinjection, serum for 12 h
Description: Cdc42 and MRCK activate nuclear movement to reorient the MTOC. A. Starved wound edge NIH-3T3 cells were injected with L61Cdc42, N17Cdc42 or Pak-CRIB domain proteins and then treated with 2 μM LPA for 2 hr. Cells were then fixed, stained and the positions of the nucleus and MTOC were determined. MTOC reorientation is indicated as YES (>60%); NO (<40%). B. Starved wound edge NIH-3T3 cells were injected with DNA encoding myc-hPAK1 (hPAK1(83-149)), HA-MRCK-TM or Flag-MRCK-CPC. After expression (2 hr) cells were treated with 2 μM LPA for 2 hr, fixed, stained and the extent of MTOC reorientation determined. C. Serum starved wound edge NIH-3T3 cells were injected with DNA encoding […] HA-L61Cdc42, HA-L61Cdc42 plus flag-MRCK-CPC or flag-MRCK-WT (MRCK-WT). After expression (3 hr), cells were fixed, stained and the extent of MTOC reorientation was determined. D, E. Average nucleus and MTOC positions of cells from B and C were determined and plotted. F. Representative images of cells microinjected with the indicated constructs and treated with LPA as indicated before fixing and staining. Arrows indicate cells with expressed protein (green), pericentrin and β-catenin (red) and DNA (blue). G. Actin (phalloidin staining) in a cell injected with MRCK-TM (arrow) and treated with LPA. […] Cells were fixed and stained and the percentage of expressing cells remaining at the wound edge determined. […]

[4] = tested on: wound edge NIH-3T3 cells; experiment: Actin distribution (phalloidin staining)
Description: Actin retrograde flow is involved in nuclear movement. A. Region of 3T3-GFPTub cell used for kymograph in B. B. Kymograph showing retrograde movement of MTs and nucleus before and after 2 μM LPA addition. […] The nucleus is the broad dark band at the bottom of the kymograph and begins moving rearward in concert with MTs. C, D. Wound edge starved NIH-3T3 cells were microinjected with R-actin and time lapse images of actin speckles were acquired before (C) or after (D) addition of 2 μM LPA. Kymographs of a region of the lamella are shown (separate cells are shown in C and D). Actin speckles (arrowheads) remain stationary in the absence of LPA (C) but move away from the leading edge upon LPA addition (D). Note that the nucleus remains stationary in the absence of LPA (C) but moves rearward at the same rate as actin speckles after LPA addition (D). E. Starved wounded monolayers of NIH-3T3 cells were either left untreated or treated with 2 μM LPA with or without BB or CD as indicated. After 2 hr, coverslips were fixed, stained and the extent of MTOC reorientation determined. The level of random “reorientation” is ˜33%. F. The average positions of the MTOC and nucleus from the cells treated as in E were determined and plotted. G. Actin distribution (phallodin staining) in wound edge NIH-3T3 cells treated as indicated. Bar, G: 10 μm.
Cdc42 and MRCK activate nuclear movement to reorient the MTOC. A. Starved wound edge NIH-3T3 cells were injected with L61Cdc42, N17Cdc42 or Pak-CRIB domain proteins and then treated with 2 μM LPA for 2 hr. Cells were then fixed, stained and the positions of the nucleus and MTOC were determined. […] After expression (2 hr) cells were treated with 2 μM LPA for 2 hr, fixed, stained and the extent of MTOC reorientation determined. […] After expression (3 hr), cells were fixed, stained and the extent of MTOC reorientation was determined. D, E. Average nucleus and MTOC positions of cells from B and C were determined and plotted. […] Cells were fixed and stained and the percentage of expressing cells remaining at the wound edge determined. […]

[5] = tested on: pSer19 MLC; experiment: Phospho-Ser19 MLC quantification; conditions: starved wound edge cells, injected, fixed 2.5 hr later
Description: Total cell extracts prepared in SDS sample buffer were analyzed by western blotting as described (38). For quantification of pSer19-MLC immunofluorescence, average cellular fluorescence intensity was determined with Metamorph software after subtracting background fluorescence (determined for an adjacent cell-free area). Data is from at least two independent experiments and error bars in plots are SEM.

[6] = microinjected protein, antibody or expressed DNA construct, 2 μM LPA, 2 hr
[7] = microinjected protein, antibody or expressed DNA construct
[8] = 100 nM nocodazole with LPA for 2h
[9] = co-expression with HA-L61Cdc42, 3 hr

## MRCK-TM: dominant negative full length MRCKa with K106A, H1579A and H1582A mutations
[1]; [6]
  effect on LPA-induced MTOC reorientation: blocked MTOC reorientation
[2]; [7]
  effect on LPA-induced rearward nuclear movement: blocking the rearward movement of the nucleus
[3]
  effect on cell migration (expressing cells remaining at the wound edge): migration was inhibited
[4]; cell injected with DNA construct, treated with LPA
  effect on LPA-induced changes in the actin cytoskeleton: did not have a major effect

## N17Cdc42: dominant-negative N17Cdc42 protein
[2]; [7]
  effect on LPA-induced rearward nuclear movement: blocked

## L61Cdc42: constitutively active L61Cdc42 protein (microinjected) or HA-L61Cdc42 DNA
[1]
  MTOC reorientation in starved cells without LPA: resulted in MTOC reorientation
[2]; no other treatment
  rearward nuclear movement in starved cells without LPA: induced rearward nuclear movement
[5]
  pSer19 MLC immunofluorescence compared to noninjected cells: substantially increased

## wild type MRCK: wild type full length Rat MRCKa
[1]
  MTOC reorientation in starved cells without LPA: induced
[2]; expressed DNA, no other treatment
  position of the MTOC in starved cells without LPA: maintaining the MTOC at the cell centroid
[2]; no other treatment
  rearward nuclear movement in starved cells without LPA: induced
[5]
  pSer19 MLC immunofluorescence compared to noninjected cells: increased
[3]
  effect on cell migration (expressing cells remaining at the wound edge): no effect on cell migration

## COC(=O)Nc1nc2ccc(C(=O)c3cccs3)cc2[nH]1 [nocodazole, reference compound]
[1]; [8]
  effect on LPA-induced MTOC reorientation: blocked MTOC reorientation
[2]; 100 nM nocodazole washed out, medium with LPA for another 2h
  MTOC position upon nocodazole wash out: the MTOC returned to the cell center
[2]; [8]
  effect on MTOC centration: interfering with MTOC centration
  effect on nuclear movement: not with nuclear movement

## Cc1ccc2c(c1)C(=O)C1(O)CCN(c3ccccc3)C1=N2 (stereo not drawn) [BB, blebbistatin, reference compound]
[1]; 2 μM LPA, 2 hr
  effect on MTOC reorientation induced by LPA: blocked
[2]
  effect on rearward nuclear movement induced by LPA: blocked
  effect on the position of the MTOC: without affecting
[4]; CD or BB with 2 μM LPA
  effect on LPA-induced changes in the actin cytoskeleton: blocked

## C=C1[C@@H](C)[C@H]2[C@H](Cc3ccccc3)NC(=O)[C@]23[C@H](OC(C)=O)/C=C/[C@@](C)(O)C(=O)[C@@H](C)C/C=C/[C@H]3[C@@H]1O [CD, cytochalasin D, reference compound]
[1]; lower concentrations of CD (below 0.5 μM)
  effect on MTOC reorientation: had no effect
[1]; 2 μM LPA, 2 hr
  effect on MTOC reorientation induced by LPA: blocked
[2]
  effect on rearward nuclear movement induced by LPA: blocked
  effect on the position of the MTOC: without affecting
[4]; CD or BB with 2 μM LPA
  effect on LPA-induced changes in the actin cytoskeleton: blocked

B1: Par6: full length mouse Par-6 in pFLAG CMV2 (protein, UniProt Q9Z101 1-346, looked up)
chain: MARPQRTPARSPDSIVEVKSKFDAEFRRFALPRTSVRGFQEFSRLLCVVHQIPGLDVLLGYTDAHGDLLPLTNDDSLHRALASGPPPLRLLVQKRAEGDSSGLAFASNSLQRRKKGLLLRPVAPLRTRPPLLISLPQDFRQVSSVIDVDLLPETHRRVRLHKHGSDRPLGFYIRDGMSVRVAPQGLERVPGIFISRLVRGGLAESTGLLAVSDEILEVNGIEVAGKTLDQVTDMMVANSHNLIVTVKPANQRNNVVRGASGRLTGPSSVGPGPTDPDSDDDSSDLVIENRHPPCSNGLSQGPLCWDLQPGCLLPGAGSSLPSLDSREQANSGWGNGMRGDVSGFSL
modifications: full-length Flag tag
notes: full length mouse Par-6 in pFLAG CMV2
[1]; [6]
  effect on LPA-induced MTOC reorientation: blocked
[2]; [7]
  effect on LPA-induced rearward nuclear movement: unaffected
[2]; microinjected protein, antibody or expressed DNA construct, LPA-treated (L61Cdc42 without LPA)
  position of the MTOC relative to the cell centroid: displacement of the MTOC from its position at the centroid

B2: MRCK-CPC: dominant negative truncated MRCKa, aa930-1492, lacks kinase domain and GTPase binding domain (protein, UniProt O54874 930-1492, looked up, fragment)
chain: QLIKDTEELRSEKGVEHRDSQHSFLAFLNTPTDALDQFERSPSCTPAGKGRRIADSAPLPVHTPTLRKKGCPASAGFPPKRKTHQFFVKSFTAPTKCHQCTSLMVGLIRQGCSCEVCGFSCHITCVNKAPTTCPVPPEQTKGPLGIDPQKGVGTAYEGHVRIPKPAGVKKGWQRALAVVCDFKLFLYDIAEGKASQPSSVISQVIDMRDEEFSVSSVLASDVIHASRKDIPCIFRVTASQLSAPSDKCSILMLADSETERSKWVGVLSELHKVLKKNKFRDRSVYVPKEAYDSTLPLIKTTQAAAIIDHERVALGNEEGLFVVHVTKDEIIRVGDNKKIHQIELIPSDQLVAVISGRNRHVRLFPMSALDGRETDFYKLAETKGCQTIAAGKVRHGALSCLCVAMKRQVLCYELFQSKTRHRKFKEIQVPCNVQWMAIFSEHLCVGFQSGFLRYPLNGEGSPCNMLHSNDHTLAFITHQPMDAICAVEISNKEYLLCFSSIGIYTDCQGRRSRQQELMWPANPSSCCYNAPYLSIYSENAVDIFDVNSMEWIQTLPLKKVRPL
modifications: Flag tag
[1]; [9]
  effect on MTOC reorientation induced by L61Cdc42: inhibited
[1]; [6]
  effect on LPA-induced MTOC reorientation: blocked MTOC reorientation
[2]; [9]
  effect on nuclear movement induced by L61Cdc42: inhibited
[2]; [7]
  effect on LPA-induced rearward nuclear movement: blocking the rearward movement of the nucleus
[5]
  pSer19 MLC immunofluorescence compared to noninjected cells: no effect

B3: hpak1(83-149): N-terminal autoregulatory domain of Pak1, which inhibits Pak1 activity (protein, UniProt Q13153 83-149, looked up, fragment)
chain: HTIHVGFDAVTGEFTGMPEQWARLLQTSNITKSEQKKNPQAVLDVLEFYNSKKTSNSQKYMSFTDKS
modifications: myc tag
[1]; [6]
  effect on LPA-induced MTOC reorientation: still reoriented their MTOC
[2]; [7]
  effect on LPA-induced rearward nuclear movement: moved their nuclei rearward
